Results published in US20180049996A1, “THERAPEUTIC AGENT FOR CHRONIC RESPIRATORY DISEASE AND COMPOSITION FOR INHIBITING CARDIAC FIBROSIS” (NIPPON HYPOX LABORATORIES INCORPORATED, priority 2015, published 2018).

What was measured:
Format in all cases: in vivo, female SD rats
[1] = test system: Myocardial Disorder Induced by Doxorubicin; assay: Autopsy and gross pathology of the hearts, myocardial disorder induced by doxorubicin; settings: test groups 1 to 3, doxorubicin 13 mg/kg; compared to the control group
Procedure: (§1) Doxorubicin is used to produce disease-model animals of cardiomyopathy. The doxorubicin and 2,3,5-trimethylhydroquinone-1-hexyl ether (HTHQ) as the hydroquinone derivative represented by the general formula (1) described above of the present invention were simultaneously administered to female SD rats of 4 week old after birth to examine the effect of the action. The test groups consisted of the control group to which sterile saline was administered; test group 1 to which doxorubicin (13 mg/kg body weight) alone was administered; test group 2 to which doxorubicin (13 mg/kg body weight) and HTHQ (50 mg/kg body weight) were administered in combination; and test group 3 to which doxorubicin (13 mg/kg body weight), HTHQ (50 mg/kg body weight) and recombinant human erythropoietin (400 IU/kg body weight) were administered in combination. The recombinant human erythropoietin (rHuEPO) is mainly used in the treatment of renal anemia etc., and has the effect to protect myocardium. The test group 3 is used to confirm the presence or absence of the inhibitory effect brought about by combining HTHQ and rHuEPO on myocardial disorder.
(§2) Doxorubicin was orally administered in a single dose to the rats in test groups 1 to 3. […]

[2] = test system: Myocardial Disorder Induced by Doxorubicin; assay: Histopathologic examination of the hearts (transmission electron microscope), myocardial disorder induced by doxorubicin; settings: Test group 1: doxorubicin 13 mg/kg alone; day 7
Procedure: as §1, with “The recombinant human erythropoietin (rHuEPO) is mainly used in the treatment of renal anemia etc., and has the effect to protect myocardium.” left out
Doxorubicin was orally administered in a single dose to the rats in test groups 1 to 3. 2,3,5-trimethylhydroquinone-1-hexyl ether (HTHQ) was orally administered to the rats in test groups 2 and 3 twice in total: 3 days before the administration of doxorubicin and on the day of the administration. […]

[3] = test system: Creatine phosphokinase (CPK); assay: Creatine phosphokinase (CPK) value in blood, myocardial disorder induced by doxorubicin; settings: Test group 1: doxorubicin 13 mg/kg alone; day 14; p<0.05
Procedure: as §1, §2

[4] = test system: Myocardial Disorder Induced by Doxorubicin; assay: Relative weights of the hearts, myocardial disorder induced by doxorubicin; settings: Test group 1: doxorubicin 13 mg/kg alone
Source text: Doxorubicin is used to produce disease-model animals of cardiomyopathy. […] The recombinant human erythropoietin (rHuEPO) is mainly used in the treatment of renal anemia etc., and has the effect to protect myocardium. The test group 3 is used to confirm the presence or absence of the inhibitory effect brought about by combining HTHQ and rHuEPO on myocardial disorder. […] Recombinant human erythropoietin was daily administered to the rats in test group 3 starting from 3 days before the administration of doxorubicin by intravenous injection. The number of animals in each group was 16. 8 animals of each group were sacrificed after collecting blood on day 7 and 14 after the administration of doxorubicin, and the autopsy of the hearts, the calculation of the relative weights of the hearts, the histopathologic examination of the hearts and the hematological examination were conducted. Myocardium is hypertrophied by fibrosing and the weight of the myocardium increases, and the relative weight of the heart tends to increase. […] Also, there was no significant difference between the other groups on day 7 and 14 after the administration (p<0.05).

[5] = test system: Myocardial Disorder Induced by Doxorubicin; assay: Histopathologic examination of the hearts (light microscope), myocardial disorder induced by doxorubicin; settings: Test group 1: doxorubicin 13 mg/kg alone
Procedure: as §1, with “The recombinant human erythropoietin (rHuEPO) is mainly used in the treatment of renal anemia etc., and has the effect to protect myocardium.” left out
Doxorubicin was orally administered in a single dose to the rats in test groups 1 to 3. 2,3,5-trimethylhydroquinone-1-hexyl ether (HTHQ) was orally administered to the rats in test groups 2 and 3 twice in total: 3 days before the administration of doxorubicin and on the day of the administration. Recombinant human erythropoietin was daily administered to the rats in test group 3 starting from 3 days before the administration of doxorubicin by intravenous injection. The number of animals in each group was 16. 8 animals of each group were sacrificed after collecting blood on day 7 and 14 after the administration of doxorubicin, and the autopsy of the hearts, the calculation of the relative weights of the hearts, the histopathologic examination of the hearts and the hematological examination were conducted.
“−” indicates “not found”, “+” indicates “mild”, “++” indicates “moderate”, and “+++” indicates “severe” in severity scores of the table.

## COc1cccc2c1C(=O)c1c(O)c3c(c(O)c1C2=O)C[C@@](O)(C(=O)CO)C[C@@H]3O[C@H]1C[C@H](N)[C@H](O)[C@H](C)O1 [doxorubicin, reference compound]
[1]
  gross pathology of the hearts: Apparent lesions were not observed
[2]
  findings in myocardial cells (transmission electron microscope): Loss of striations, loss of intercalated discs, swelling of mitochondria, loss of mitochondrial outer membrane and detachment of cristae etc. were observed
[3]
  creatine phosphokinase (CPK) value: significantly higher than that of the control group
[4]; Day 7 after administration
  relative weight of the heart: 0.3819 ± 0.0204%
[4]; Day 14 after administration
  relative weight of the heart: 0.3626 ± 0.0221%
[5]; Day 7 after administration
  Severity score: Cell infiltration in interstitial tissue: +
  Severity score: Degeneration of myocardial cells: ++
  Severity score: Loss and disorganization of myocardial fibers: ++
  Severity score: Loss of intercalated discs: +
  Severity score: Loss of striations: ++
  Severity score: Vacuolation of myocardial fibers: +
[5]; Day 14 after administration
  Severity score: Cell infiltration in interstitial tissue: −
  Severity score: Degeneration of myocardial cells: +++
  Severity score: Loss and disorganization of myocardial fibers: +++
  Severity score: Loss of intercalated discs: ++
  Severity score: Loss of striations: +++
  Severity score: Vacuolation of myocardial fibers: +++
